Values of other authors as cited in patent US20110086074A1, “COMBINATIONS OF NIACIN AND AN OXICAM” (DR. REDDY'S LABORATORIES LTD., priority 2008, published 2011).

Tests used:
[1] = n-octanol/pH 7.4 buffer

In the case of `Cc1cnc(NC(=O)C2=C(O)c3ccccc3S(=O)(=O)N2C)s1` [Meloxicam, 4-hydroxy-2-methyl-N-(5-methyl-2-thiazolyl)-2H-1,2-benzothiazine-3-carboxamide-1,1-dioxide], the Apparent partition coefficient [1] is listed as 0.1, the Solubility in methanol (methanol) is listed as “very slightly soluble in methanol” and the “Solubility in strong acids and bases” value (strong acids and bases, compared with water) is listed as “higher solubility observed in strong acids and bases”. For the same compound, the Solubility in water was “practically insoluble in water”.

For `O=C(O)c1cccnc1` [Niacin, 3-pyridinecarboxylic acid], the Solubility in water is given as “very soluble in water”.
